# Assay results reported in patent US20150065421A1, “BASAL INSULIN THERAPY” (SANOFI, priority 2012, published 2015).
# What was measured:
# [1] = system: people at high risk for vascular disease with either IFG, IGT, or early type 2 diabetes; assay: ORIGIN trial: microvascular outcomes; format: in vivo, human
# Excerpt: The composite microvascular outcome will be met by the development of any of the following: • Doubling of serum creatinine from study baseline (screening value) • Albuminuria progression, defined as a change from normoalbuminuria to either microalbuminuria or clinical proteinuria, or from microalbuminuria to clinical proteinuria using the definitions in the attached table.
# • Requirement for renal replacement therapy (eg, dialysis, renal transplant), or death due to renal failure • Use of retinal photocoagulation or vitrectomy for diabetic retinopathy, including macular edema
# There were 2 co-primary composite CV outcomes. The first was CV death, non-fatal MI or non-fatal stroke, and the second was a composite of any of these events or a revascularization procedure or hospitalization for heart failure. Secondary outcomes included a composite microvascular outcome comprising a doubling of serum creatinine from baseline, progression of albuminuria category from normoalbuminuria or microalbuminuria to microalbuminuria or overt nephropathy, renal replacement therapy, renal death, retinal photocoagulation or vitrectomy for retinopathy. They also included new type 2 diabetes developing by the time of the 1st post-trial oral glucose tolerance test in participants without baseline diabetes, and all-cause mortality. Other outcomes included incident cancers, CV hospitalizations, and angina. Cardiovascular and cancer outcomes were reviewed by adjudicators masked to treatment allocation. Episodes of hypoglycaemia since the prior visit were recorded at each visit. Symptomatic hypoglycemia was classified as confirmed if a concomitant recorded capillary glucose level was <3 mmol/L (54 mg/dL). Severe hypoglycemia was defined as hypoglycemia that required assistance plus either prompt recovery with glucose or glucagon or a documented capillary glucose ≦2.0 (36 mg/dL). New diabetes was diagnosed if 2 consecutive FPG levels within a 4-month period were ≧7 mM (126 mg/dL) during the trial; a diagnosis of diabetes was made by a physician and a pharmacologic antidiabetic agent was being taken and there was evidence of either a FPG ≧7 mM (126 mg/dL) or any glucose value ≧11.1 mM (200 mg/dL); either 1 or more capillary glucose levels were ≧11.1 mM (200 mg/dl) and a lab-measured FPG was ≧7 mmol/l (126 mg/dl) or a lab measured random glucose level was ≧11.1 mM (200 mg/dl) during down-titration of glargine insulin; or any FPG was ≧7 mM (126 mg/dl) or 2 hour plasma glucose was ≧11.1 mM (200 mg/dl) during the first oral glucose tolerance test.
# The microvascular outcome was a composite of: laser surgery or vitrectomy or blindness for diabetic retinopathy; development of renal death or the need for renal replacement treatment (dialysis or transplantation); doubling of serum creatinine; or progression from lesser to greater severity of microalbuminuria. The last 2 components are laboratory-based—the others are “clinical” microvascular outcomes.
# [2] = system: people at high risk for vascular disease with either IFG, IGT, or early type 2 diabetes; assay: ORIGIN trial: blood triglyceride and cholesterol change; format: in vivo, human; conditions: glargine group
# [3] = cited from earlier work
# [4] = patients with a history of atrial fibrillation at baseline
substance,measurement,setting,value
(Gly A21) Arg (B31) Arg (B32) human insulin [insulin glargine],"Albumin Prog, N (%)",[1]; glargine group,1154
same,"Albumin Prog, Rate",[1]; glargine group,3.3
same,"Clin Microvasc, N (%)",[1]; glargine group,190
same,"Clin Microvasc, Rate",[1]; glargine group,0.5
same,"Double Cr, N (%)",[1]; glargine group,94
same,"Double Cr, Rate",[1]; glargine group,0.25
same,"Laser/Vitrect, N (%)",[1]; glargine group,79
same,"Laser/Vitrect, Rate",[1]; glargine group,0.22
same,"Microvascular, N (%)",[1]; glargine group,1280
same,"Microvascular, Rate",[1]; glargine group,3.7
same,"Renal Failure, N (%)",[1]; glargine group,36
same,"Renal Failure, Rate",[1]; glargine group,0.1
same,"Laser/Vitrect, HR (95% CI)","[1]; glargine vs standard, P 0.016","0.59 (0.38, 0.91)"
same,"Clin Microvasc, HR (95% CI)","[1]; glargine vs standard, P 0.038","0.74 (0.56, 0.98)"
same,"Microvascular, HR (95% CI)","[1]; glargine vs standard, P 0.066","0.90 (0.81, 1.01)"
same,"Double Cr, HR (95% CI)","[1]; glargine vs standard, P 0.09","0.70 (0.46, 1.06)"
same,"Albumin Prog, HR (95% CI)","[1]; glargine vs standard, P 0.17","0.92 (0.82, 1.04)"
same,"Renal Failure, HR (95% CI)","[1]; glargine vs standard, P 0.46","1.27 (0.67, 2.39)"
same,"microvascular outcomes, difference to standard care",[1]; insulin glargine vs standard care,no statistically significant difference
same,RR for Clinical Microvascular outcomes (non-laboratory-based),[1]; [4],0.42 (0.19-0.91)
same,RR for microvascular outcome,[1]; [4],0.74 (0.55-0.98)
same,relative risk (RR) for microvascular outcome,"[1]; patients with baseline A1c<6.4%, not significant",1.08
same,relative risk (RR) for microvascular outcome,"[1]; patients with baseline A1c≧6.4%, statistically significant",0.88 (0.79-0.98)
same,change of triglyceride concentration in the blood,[2]; P<0.001 vs standard care,−0.21 (0.03)
same,Total cholesterol change from baseline to end-of-study,[2]; p 0.044 vs standard care,-0.41 mmol/L
same,mean duration of action,[3]; in vivo,approximately 20 hours
same,duration of glucose lowering effect,"[3]; smooth, without a definite peak",24 h
